Measured values: paper PMC10459044, “Anticholinesterase and Serotoninergic Evaluation of Benzimidazole–Carboxamides as Potential Multifunctional Agents for the Treatment of Alzheimer’s Disease” (Pharmaceutics, 2023)
pEC50, pKi: −log10 of the molar value. Entries after “also recorded” stand apart in the source; their conditions may differ. Where two headings read alike, the source gives them in different places.

Experiments:
human AChE = biological target: T1, human AChE (Homo sapiens, UniProt P22303); experiment: biochemical; format: biochemical; settings: for Type of Inhibition / thermodynamic cooperativity factor α: human AChE; for Type of Inhibition: Lineweaver–Burk plots; for thermodynamic cooperativity factor α: mixed inhibition model
T1 construct: human erythrocyte AChE (Biomed, Auckland, New Zealand); purchased Biomed, Auckland, New Zealand; host or cells: human erythrocytes (natural source)
Description: (§1) The biochemical analysis of the inhibitory ability of the drugs against AChE and BChE was performed using a microplate modification of the Ellman method. The following reagents were used: 5,5′-dithio-bis-2-nitrobenzoic acid (DTNB, Sigma-Aldrich, St. Louis, MO, USA), acetylthiocholine (ATCh, Sigma-Aldrich), butyrylthiocholine (BTCh, Sigma-Aldrich), human erythrocyte AChE (Biomed, Auckland, New Zealand), human plasma BChE (Mechnikov Scientific Research Institute of Vaccines and Serums, St. Petersburg, Russia), phosphate-buffered saline (PBS; pH 7.2; Biolot, […]) and distilled water (pH 5.97, Biolot).
(§2) AChE and BChE were dissolved in PBS to obtain solutions of 1 mg/mL. Due to its high activity, human BChE was used at a 1:30 dilution. Solutions of the studied compounds were prepared with serial dilutions; their concentration in the reaction mixture was in a range from 0 to 300 μM. Double-distilled water, ethanol and dimethyl sulfoxide (DMSO, up to 15% of the total solvent volume) were used as solvents. When using DMSO or ethanol, an additional control was performed to assess the effect of the solvent itself. Protein (AChE of BChE) was incubated for 5 min at 37 °C and then the coloring solution was added, which contained a 2 mM freshly prepared DTNB solution and the substrate (ATCh/BTCh) in the concentration range of 200–800 μM. The kinetics were recorded for 15 min at 37 °C at a wavelength of 405 nm. Activity (μM × min^−1) was calculated using the molar extinction coefficient 0.01415 μmol^−1 × cm^−1: (V/ε × l × v) × (ΔE/Δt), where V is the volume of the analyzed mixture (μL); v is the volume of the enzyme solution (μL); ΔE/Δt is the change in extinction in 1 min; l is the thickness of the absorbing layer (cm); and ε is the coefficient of molar extinction of […]. Each measurement was repeated three times.
(§3) The type of inhibition was evaluated using Lineweaver–Burk plots. The dissociation constant of the enzyme-inhibitor complex (Ki), the maximum rate (Vmax) and thermodynamic cooperativity factor α were calculated using the Graphpad Prism 8.0 program (GraphPad Software Inc., San Diego, CA, USA) according to the model “enzymatic kinetics-inhibition—type of inhibition”.

human BChE = biological target: T2, human BChE (Homo sapiens, UniProt P06276); experiment: Inhibition of human plasma BChE, microplate Ellman method; format: biochemical; settings: for Type of Inhibition: human BChE, Lineweaver–Burk plots; for pKi: read-out: Ki
T2 construct: human plasma BChE (Mechnikov Scientific Research Institute of Vaccines and Serums, St. Petersburg, Russia); purchased Mechnikov Scientific Research Institute of Vaccines and Serums, St. Petersburg, Russia; host or cells: human plasma (natural source)
Description: as §1, §2, §3

5-HT4R = settings: read-out: EC50 relative to 5-HT4R; cited from earlier work
[1] = human plasma BChE (1:30 dilution), BTCh substrate, 37 °C
[2] = human erythrocyte AChE, ATCh substrate, 37 °C, read-out: Ki

T2 sequence (P06276 29-602): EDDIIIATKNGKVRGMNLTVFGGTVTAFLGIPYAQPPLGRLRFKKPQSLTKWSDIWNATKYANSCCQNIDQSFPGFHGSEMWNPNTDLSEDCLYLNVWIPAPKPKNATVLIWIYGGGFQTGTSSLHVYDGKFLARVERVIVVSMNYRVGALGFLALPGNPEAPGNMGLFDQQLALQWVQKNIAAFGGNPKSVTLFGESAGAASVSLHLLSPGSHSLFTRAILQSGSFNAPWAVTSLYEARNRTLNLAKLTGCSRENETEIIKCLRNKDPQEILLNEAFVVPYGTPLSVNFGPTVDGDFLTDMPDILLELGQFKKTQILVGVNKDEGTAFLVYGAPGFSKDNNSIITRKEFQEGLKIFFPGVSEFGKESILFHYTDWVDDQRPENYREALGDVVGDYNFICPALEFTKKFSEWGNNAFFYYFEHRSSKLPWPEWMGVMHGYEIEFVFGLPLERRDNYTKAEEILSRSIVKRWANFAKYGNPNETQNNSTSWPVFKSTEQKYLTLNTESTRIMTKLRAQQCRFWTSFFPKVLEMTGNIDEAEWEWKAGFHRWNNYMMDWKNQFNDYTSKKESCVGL
T1 sequence (P22303 32-617 isoform P22303-2 limits assumed): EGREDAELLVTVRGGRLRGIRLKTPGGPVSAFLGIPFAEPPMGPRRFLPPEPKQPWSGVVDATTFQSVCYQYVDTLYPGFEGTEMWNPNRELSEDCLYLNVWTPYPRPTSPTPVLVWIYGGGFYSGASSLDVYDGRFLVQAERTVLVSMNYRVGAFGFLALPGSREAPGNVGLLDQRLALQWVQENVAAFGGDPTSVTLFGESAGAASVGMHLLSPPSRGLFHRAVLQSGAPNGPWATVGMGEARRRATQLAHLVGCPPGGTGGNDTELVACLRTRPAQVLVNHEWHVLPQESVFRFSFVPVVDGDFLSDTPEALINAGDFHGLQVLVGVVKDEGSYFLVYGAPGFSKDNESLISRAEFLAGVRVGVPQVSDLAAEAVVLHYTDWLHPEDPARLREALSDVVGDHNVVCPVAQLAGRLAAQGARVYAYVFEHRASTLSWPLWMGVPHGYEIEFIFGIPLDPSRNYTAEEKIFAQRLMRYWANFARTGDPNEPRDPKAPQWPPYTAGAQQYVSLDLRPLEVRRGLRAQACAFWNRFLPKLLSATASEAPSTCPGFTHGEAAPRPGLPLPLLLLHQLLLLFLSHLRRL

**Q.** What does the source list for `CCN(CC)CCNC(=O)n1c(=O)n(C(C)(C)C)c2ccccc21.Cl` [Compound 13, N-[2-(diethylamino)ethyl]-2-oxo-3-(tert-butyl)-2,3-dihydro-1H-benzimidazole-1-carboxamide hydrochloride]?
**A.** pKi (human AChE): 4.44; AChE inhibition less effective than compound 24 (ratio of Ki) (human AChE; compound 13 vs compound 24): ~300 times; Type of Inhibition (human AChE): strictly competitive; Type of Inhibition (human BChE): non-competitive; pKi (human BChE; [1]): 5.77

**Q.** What does the source list for `CC(C)n1c(=O)n(C(=O)NC2CC3CCC(C2)N3C)c2ccccc21` (stereo not drawn) [Compound 15, reference compound]?
**A.** Type of Inhibition (human AChE): mixed; thermodynamic cooperativity factor α (human AChE): 6.6; pKi (human AChE; [2]): 3.90; Type of Inhibition (human BChE): competitive; pKi (human BChE; [1]): 5.01; pEC50 (5-HT4R): 7.74

**Q.** For `CC(C)n1c(=O)n(C(=O)NC2CC3CCC(C2)N3C)c2cc(C(F)(F)F)ccc21` (stereo not drawn) [Compound 16], which “Type of Inhibition” value (human AChE) is on record?
**A.** The value was “mixed”.

**Q.** And the “thermodynamic cooperativity factor α” value (human AChE)?
**A.** Its value is 5.1.

**Q.** What about the pKi (human AChE; [2]) of the same compound?
**A.** Its pKi is 4.51.

**Q.** And the “Type of Inhibition” value (human BChE)?
**A.** The value was “competitive”.

**Q.** What about the pKi (human BChE; [1]) of the same compound?
**A.** The pKi was 4.67.

**Q.** For `CCN(CC)CCNC(=O)n1c(=O)n(C(C)C)c2ccccc21` [Compound 22], which “Type of Inhibition” value (human AChE) is on record?
**A.** Its value is “strictly competitive”.

**Q.** What about the pKi (human AChE; [2]) of the same compound?
**A.** Its pKi is 4.01.

**Q.** What about the “Type of Inhibition” value (human BChE) of the same compound?
**A.** The value was “competitive”.

**Q.** And the pKi (human BChE; [1])?
**A.** The pKi was 4.82.

**Q.** For `CCN(CC)CCNC(=O)n1c(=O)n(C(C)C)c2ccc(C(F)(F)F)cc21` [Compound 23], which “Type of Inhibition” value (human AChE) is on record?
**A.** Its value is “mixed”.

**Q.** And the “thermodynamic cooperativity factor α” value (human AChE)?
**A.** The value was 3.1.

**Q.** What about the pKi (human AChE; [2]) of the same compound?
**A.** The pKi was 4.22.

**Q.** And the “Type of Inhibition” value (human BChE)?
**A.** Its value is “non-competitive”.

**Q.** And the pKi (human BChE; [1])?
**A.** Its pKi is 5.35.

**Q.** For `CC(C)n1c(=O)n(C(=O)N2CCN(C(c3ccccc3)c3ccc(Cl)cc3)CC2)c2ccccc21` (stereo not drawn) [Compound 24], which “Type of Inhibition” value (human AChE) is on record?
**A.** Its value is “non-competitive”.

**Q.** And the pKi (human AChE; [2])?
**A.** The pKi was 6.89.

**Q.** And the “Type of Inhibition” value (human BChE)?
**A.** Its value is “no inhibition”.

**Q.** And the Ki (human BChE; [1])?
**A.** Its Ki is “no inhibitory effect; also recorded: did not demonstrate inhibitory properties; also recorded: no inhibition”.

**Q.** Which “Type of Inhibition” value (human AChE) does the source give for `CCN(CC)CCNC(=O)n1c(=O)n(C2CC2)c2ccccc21` [Compound 27] here?
**A.** The value was “mixed”.

**Q.** And the “thermodynamic cooperativity factor α” value (human AChE)?
**A.** The value was 10.9.

**Q.** What about the pKi (human AChE; [2]) of the same compound?
**A.** Its pKi is 3.88.

**Q.** What about the “Type of Inhibition” value (human BChE) of the same compound?
**A.** The value was “competitive”.

**Q.** And the pKi (human BChE; [1])?
**A.** Its pKi is 4.79.

**Q.** With `CN(C)CCNC(=O)n1c(=O)n(C2CC2)c2ccccc21` [Compound 28] as the compound, how does the “Type of Inhibition” value (human AChE) read?
**A.** The value was “mixed”.

**Q.** What about the “thermodynamic cooperativity factor α” value (human AChE) of the same compound?
**A.** The value was 12.6.

**Q.** What about the pKi (human AChE; [2]) of the same compound?
**A.** The pKi was 3.86.

**Q.** What about the “Type of Inhibition” value (human BChE) of the same compound?
**A.** The value was “non-competitive”.

**Q.** And the pKi (human BChE; [1])?
**A.** Its pKi is 4.55.
